Test results as given in patent US4382935A, “Analgesic drug containing a derivative of benzylpiperazine” (Buzas; Andre, priority 1980, dated 1983).
“And” between values parts separate entries of the source, which are not always exact repeats. Equal entries are not always repeated.

Key:
[1] = Acute toxicity in mice (DL50), peroral; settings: mouse, in vivo, po, mortality over 48 hours
Method: The acute toxicity is evaluated according to the mortality observed during a period of 48 hours on batches of four mice which have received perorally 100, 200, 400, 800 and 1600 mg/kg of the compound under study.

mice [2] = assay: Siegmund test with phenylbenzoquinone in mice; type: in vivo; settings: Mus musculus, po, 1 h, peroral, one hour before phenylbenzoquinone i.p., read-out: DE50 (50% reduction in the number of contortions)
Method: This test has been performed in accordance with the method described by Siegmund, Cadmus and Lu ("A method for evaluating both non-narcotic and narcotic analgesics", Proc. Soc. Exp. Biol. Med., 1957, 95, 729-731).
(§1) One hour after peroral administration of the product under study to batches of twelve mice per dose, phenylbenzoquinone in solution in a proportion of 0.02% in water containing 5% ethyl alcohol is administered by intraperitoneal injection in a proportion of 0.25 ml per mouse of 20 g.
The dose DE50 (which produces a 50% reduction in the number of contortions with respect to the reference animals) is calculated on the basis of the dose/effect relation.

mice [3] = assay: Heating-plate test performed on mice (Eddy test); type: in vivo; settings: peroral, one hour before test, plate at 56.5° C; for ED30: Mus musculus, po, 1 h, read-out: DE30 (30% increase in licking time)
Method: This test has been carried out in accordance with the method described by N. B. Eddy (J. Pharmacol: 1932, 45, 339-359).
One hour after the product under study has been administered perorally to batches of twelve mice per dose, the time taken by the mice to lick their front paws is measured, the mice having been placed on a plate heated to a temperature of 56.5° C.
The dose DE30 (which produces a 30% increase in licking time with respect to the reference animals) is calculated on the basis of the dose/effect relation.

mice [4] = assay: Antagonism produced by Naloxone in the Siegmund test; type: in vivo
Method: as §1
The dose DE50 (which produces a 50% reduction in the number of contortions with respect to the reference animals) is calculated on the basis of the dose/effect relation. The following results are thus obtained:
This antagonism is sought in the Siegmund test performed on mice with phenylbenzoquinone as described earlier. Naloxone is administered by subcutaneous injection at a fixed dose at the same time as the product under study.

guinea-pig ileum = biological target: T1, guinea-pig ileum (Cavia porcellus, UniProt P31389); assay: Antagonism with respect to histamine on isolated organ; type: cell-based; settings: agonist histamine
T1 construct: the organ on which this action has been studied is the guinea-pig ileum; from tissue; host or cells: isolated guinea-pig ileum
T1 sequence (P31389 whole entry): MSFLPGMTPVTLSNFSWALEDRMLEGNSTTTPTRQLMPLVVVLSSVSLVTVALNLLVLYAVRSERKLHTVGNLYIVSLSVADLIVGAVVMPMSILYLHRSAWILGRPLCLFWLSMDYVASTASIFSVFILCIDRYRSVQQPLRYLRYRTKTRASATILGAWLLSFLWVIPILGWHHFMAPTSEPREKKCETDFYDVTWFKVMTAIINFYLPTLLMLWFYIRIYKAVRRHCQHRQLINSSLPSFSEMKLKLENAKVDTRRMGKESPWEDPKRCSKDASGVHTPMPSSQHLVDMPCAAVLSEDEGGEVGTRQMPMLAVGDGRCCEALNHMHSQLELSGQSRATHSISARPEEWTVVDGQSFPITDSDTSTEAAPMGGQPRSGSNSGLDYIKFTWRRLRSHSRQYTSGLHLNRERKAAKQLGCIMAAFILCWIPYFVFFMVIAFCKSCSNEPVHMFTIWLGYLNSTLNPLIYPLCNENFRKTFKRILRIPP
Method: (§2) These interactions are sought on isolated organs which are maintained in a state of survival in a nutrient liquid. The contractions of these organs are recorded on a kymograph by means of an isotonic mechanism.
(§3) An agonist is added to the nutrient liquid bath, either alone or after addition of an antagonist, to increasing concentrations which serve to plot cumulative dose-response curves.
In this test, the organ on which this action has been studied is the guinea-pig ileum. The nutrient liquid employed is Tyorode, the agonist is histamine and the antagonist is the product under study.

rat fundus [5] = biological target: T2, rat fundus (Rattus norvegicus, UniProt P30994); assay: Antagonism with respect to serotonin on isolated organ; type: cell-based; settings: for nature of antagonism with respect to serotonin: rat fundus, agonist serotonin
T2 construct: The organ under study is the rat fundus; from tissue; host or cells: isolated rat fundus
T2 sequence (P30994 whole entry): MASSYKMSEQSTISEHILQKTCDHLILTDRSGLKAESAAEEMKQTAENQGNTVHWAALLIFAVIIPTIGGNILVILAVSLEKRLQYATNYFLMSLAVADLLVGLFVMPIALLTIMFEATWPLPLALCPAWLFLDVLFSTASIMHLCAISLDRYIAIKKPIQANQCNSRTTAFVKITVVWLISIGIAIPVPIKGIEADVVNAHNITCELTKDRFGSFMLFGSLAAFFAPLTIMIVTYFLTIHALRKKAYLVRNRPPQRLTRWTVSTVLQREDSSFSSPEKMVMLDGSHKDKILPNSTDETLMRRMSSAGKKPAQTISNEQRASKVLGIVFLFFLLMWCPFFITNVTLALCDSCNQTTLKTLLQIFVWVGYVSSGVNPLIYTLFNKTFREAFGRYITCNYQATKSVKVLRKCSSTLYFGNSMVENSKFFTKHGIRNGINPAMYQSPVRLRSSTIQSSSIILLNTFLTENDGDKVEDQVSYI
Method: as §2, §3
The organ under study is the rat fundus, the nutrient liquid employed is Kreps liquid, the agonist is serotonin and the antagonist is the product under study.

rat fundus [6] = assay: Agonism on the rat fundus; type: cell-based; settings: product under study as agonist
Method: as §2, §3
The organ under study is the rat fundus, the nutrient liquid is the Kreps liquid and the agonist is the product under study.

rat fundus [7] = assay: Antagonism produced by harmine on rat fundus; type: cell-based; settings: product as agonist, harmine as antagonist
Method: as §2, §3
The organ studied in this case is the rat fundus the nutrient liquid is the Kreps liquid, the agonist corresponds to the product under study and the antagonist is harmine.

[8] = biological target: morphine-compound cerebral receptors; assay: Fixation on morphine-compound cerebral receptors (displacement of tritiated etorphin); type: binding; settings: rat-brain homogenate, 1 mg/ml protein, 30 minutes at 35° C; read-out: CI50 (displacement of tritiated etorphin)
Method: It is sought to determine the affinity of the products under study by means of their capacity for displacement of tritiated etorphin in a rat-brain homogenate (containing 1 mg/ml of protein) over a period of 30 minutes at 35° C. This test consists in determining the value CI50 corresponding to the concentration of products which are capable of inhibiting 50% of the specific radioactive ligand bond.

| Structure (SMILES) | LD50 at 48 h [1] | ED50 (mice [2]) | ED30 (mice [3]) [mg/kg] | DE30 (30% increase in licking time) (mice [3]) [micro-moles per kg] | antagonism of analgesic effect by Naloxone (conclusion) (mice [4]) | nature of antagonism with respect to histamine (guinea-pig ileum) | Kb (rat fundus [5]) [µM] | nature of antagonism with respect to serotonin (rat fundus [5]) | affinity parameter (pD2) as agonist (rat fundus [6]) | nature of antagonism by harmine with respect to the product (rat fundus [7]) | IC50 [8] [µM] | affinity parameter (pA2) with respect to histamine (guinea-pig ileum) |
| --- | --- | --- | --- | --- | --- | --- | --- | --- | --- | --- | --- | --- |
| CC(=O)n1cc(N2CCN(Cc3ccccc3)CC2)c2ccccc21 [known compound, 1-acetyl-3-benzylpiperazino-indole] | 3000 µmol/kg and 1000 mg/kg | 55 µmol/kg and 18 mg/kg | 13 | 40 | not antagonized | non-competitive antagonist | 4.57 | competitive antagonist | 5.4 | non-competitive antagonism | 103 |  |
| c1ccc(CN2CCN(c3coc4ccccc34)CC2)cc1 [1-(3'-benzofuryl)-4-benzylpiperazine] | 5500 µmol/kg and 1600 mg/kg | 22 µmol/kg and 6.5 mg/kg | 20 | 70 | antagonized by Naloxone | competitive antagonist |  | non-competitive antagonist | 7.0 | competitive antagonism | > 300 | 5.99 |
